This is an account of results in patent publication US8486901B2 (priority 2009, dated 2013).

In this experiment the test system is Kunming mice. The conditions noted are these: mouse, in vivo.

“And” between values parts separate entries of the source, which are not always exact repeats. Identical values can stand only once.

Consider `N=C1NC(O)C2C3OC4(O)OC(C(O)C2(N1)[C@@H]4O)C3(O)COC1OC(CO)C(O)C(O)C1O` (stereo partly drawn) [Formula 11-Gal-TTX, 11-galactopyranosyl-TTX], for which the “Effect on pain (result in words)” value is given as “inhibitory effect on pain”; the “Inhibition rate (%)” value is 60.6% and 30.3% and 51.7%; the Number of writhes was 12.50 ± 4.7 and 22.10 ± 6.4 and 15.30 ± 6.4.
